Test results from patent US4604234A, “Protein having cell growth stimulating action, composition thereof and method for producing the same” (priority 1983, dated 1986).
Read-outs that look alike come from different tables or passages of the source.

Legend:
BHK-21 cells [1] = assay: Inhibitory effects of steroids on BHK-21 cells; format: cell-based, hamster; details: for activity at 0.5 µg/mL / activity at 1 µg/mL / activity at 5 µg/mL / activity at 25 µg/mL / activity at 50 µg/mL: Mesocricetus auratus, read-out: % of control cell numbers
BHK-21 cells [2] = assay: Effects of WHS on BHK-21 cells in the presence of steroids; format: cell-based, hamster; details: steroid 50 μg/ml alone
[3] = system: human cutaneous fibroblasts; details: cited from earlier work; for growth inhibition of incubated human cutaneous fibroblasts: listed in descending order of inhibition
mouse fibroblasts = details: with protoplasmic vacuolation; cited from earlier work
[4] = BHK-21, 48 h, 0.5 μg/ml, 2 days
[5] = BHK-21, 48 h, 1.0 μg/ml, 2 days
[6] = BHK-21, 48 h, 5.0 μg/ml, 2 days
[7] = BHK-21, 48 h, 25.0 μg/ml, 2 days
[8] = BHK-21, 48 h, 50.0 μg/ml, 2 days
[9] = BHK-21, 96 h, 0.5 μg/ml, 4 days
[10] = BHK-21, 96 h, 1.0 μg/ml, 4 days
[11] = BHK-21, 96 h, 5.0 μg/ml, 4 days
[12] = BHK-21, 96 h, 25.0 μg/ml, 4 days
[13] = BHK-21, 96 h, 50.0 μg/ml, 4 days
[14] = BHK-21, 144 h, 0.5 μg/ml, 6 days
[15] = BHK-21, 144 h, 1.0 μg/ml, 6 days
[16] = BHK-21, 144 h, 5.0 μg/ml, 6 days
[17] = BHK-21, 144 h, 25.0 μg/ml, 6 days
[18] = BHK-21, 144 h, 50.0 μg/ml, 6 days

With `C[C@@H]1C[C@H]2[C@@H]3CCC4=CC(=O)C=C[C@]4(C)[C@@]3(F)[C@@H](O)C[C@]2(C)[C@@]1(O)C(=O)CO` [Dexamethasone, dexamethasone] the cell numbers (BHK-21 cells [1]; 0.5 μg/ml, 2 days) was 0.92 × 10^5 cells/dish, the cell numbers (BHK-21 cells [1]; 0.5 μg/ml, 4 days) was 2.32 × 10^5 cells/dish and the cell numbers (BHK-21 cells [1]; 0.5 μg/ml, 6 days) was 2.51 × 10^5 cells/dish. The cell numbers (BHK-21 cells [1]; 1.0 μg/ml, 2 days) was 0.87 × 10^5 cells/dish, the cell numbers (BHK-21 cells [1]; 1.0 μg/ml, 4 days) was 2.31 × 10^5 cells/dish and the cell numbers (BHK-21 cells [1]; 1.0 μg/ml, 6 days) was 2.54 × 10^5 cells/dish. The cell numbers (BHK-21 cells [1]; 5.0 μg/ml, 2 days) was 0.84 × 10^5 cells/dish, the cell numbers (BHK-21 cells [1]; 5.0 μg/ml, 4 days) was 2.22 × 10^5 cells/dish and the cell numbers (BHK-21 cells [1]; 5.0 μg/ml, 6 days) was 2.57 × 10^5 cells/dish. For the same compound, the cell numbers (BHK-21 cells [1]; 25.0 μg/ml, 2 days) was 0.71 × 10^5 cells/dish, the cell numbers (BHK-21 cells [1]; 25.0 μg/ml, 4 days) was 1.71 × 10^5 cells/dish and the cell numbers (BHK-21 cells [1]; 25.0 μg/ml, 6 days) was 2.33 × 10^5 cells/dish. For the same compound, the cell numbers (BHK-21 cells [1]; 50.0 μg/ml, 2 days) was 0.62 × 10^5 cells/dish, the cell numbers (BHK-21 cells [1]; 50.0 μg/ml, 4 days) was 1.24 × 10^5 cells/dish and the cell numbers (BHK-21 cells [1]; 50.0 μg/ml, 6 days) was 1.84 × 10^5 cells/dish. It also gave an activity at 0.5 µg/mL (BHK-21 cells [1]; [4]) of 94.8%, an activity at 1 µg/mL (BHK-21 cells [1]; [5]) of 89.7% and an activity at 5 µg/mL (BHK-21 cells [1]; [6]) of 86.6%. The activity at 25 µg/mL (BHK-21 cells [1]; [7]) was 73.2%, the activity at 50 µg/mL (BHK-21 cells [1]; [8]) was 63.9% and the activity at 0.5 µg/mL (BHK-21 cells [1]; [9]) was 87.2%. It also gave an activity at 1 µg/mL (BHK-21 cells [1]; [10]) of 86.8%, an activity at 5 µg/mL (BHK-21 cells [1]; [11]) of 83.5% and an activity at 25 µg/mL (BHK-21 cells [1]; [12]) of 64.3%. The activity at 50 µg/mL (BHK-21 cells [1]; [13]) was 46.6%, the activity at 0.5 µg/mL (BHK-21 cells [1]; [14]) was 97.3% and the activity at 1 µg/mL (BHK-21 cells [1]; [15]) was 98.4%. For the same compound, the activity at 5 µg/mL (BHK-21 cells [1]; [16]) was 99.6%, the activity at 25 µg/mL (BHK-21 cells [1]; [17]) was 90.3% and the activity at 50 µg/mL (BHK-21 cells [1]; [18]) was 71.3%. For the same compound, the cell numbers (BHK-21 cells [2]; 2nd day) was 0.87 × 10^5 cells/dish and the cell numbers (BHK-21 cells [2]; 4th day) was 1.28 × 10^5 cells/dish.

With `C[C@]12CCC(=O)C=C1CC[C@@H]1[C@@H]2[C@@H](O)C[C@@]2(C)[C@H]1CC[C@]2(O)C(=O)CO` [Hydrocortisone, hydrocortisone] the cell numbers (BHK-21 cells [1]; 0.5 μg/ml, 2 days) was 13.0 × 10^5 cells/dish, the cell numbers (BHK-21 cells [1]; 0.5 μg/ml, 4 days) was 24.0 × 10^5 cells/dish and the cell numbers (BHK-21 cells [1]; 0.5 μg/ml, 6 days) was 25.6 × 10^5 cells/dish. For the same compound, the cell numbers (BHK-21 cells [1]; 1.0 μg/ml, 2 days) was 12.5 × 10^5 cells/dish, the cell numbers (BHK-21 cells [1]; 1.0 μg/ml, 4 days) was 23.8 × 10^5 cells/dish and the cell numbers (BHK-21 cells [1]; 1.0 μg/ml, 6 days) was 25.1 × 10^5 cells/dish. The cell numbers (BHK-21 cells [1]; 5.0 μg/ml, 2 days) was 12.0 × 10^5 cells/dish, the cell numbers (BHK-21 cells [1]; 5.0 μg/ml, 4 days) was 21.9 × 10^5 cells/dish and the cell numbers (BHK-21 cells [1]; 5.0 μg/ml, 6 days) was 25.2 × 10^5 cells/dish. For the same compound, the cell numbers (BHK-21 cells [1]; 25.0 μg/ml, 2 days) was 9.3 × 10^5 cells/dish, the cell numbers (BHK-21 cells [1]; 25.0 μg/ml, 4 days) was 17.1 × 10^5 cells/dish and the cell numbers (BHK-21 cells [1]; 25.0 μg/ml, 6 days) was 22.6 × 10^5 cells/dish. The cell numbers (BHK-21 cells [1]; 50.0 μg/ml, 2 days) was 8.2 × 10^5 cells/dish, the cell numbers (BHK-21 cells [1]; 50.0 μg/ml, 4 days) was 10.8 × 10^5 cells/dish and the cell numbers (BHK-21 cells [1]; 50.0 μg/ml, 6 days) was 10.0 × 10^5 cells/dish. The activity at 0.5 µg/mL (BHK-21 cells [1]; [4]) was 105%, the activity at 1 µg/mL (BHK-21 cells [1]; [5]) was 101% and the activity at 5 µg/mL (BHK-21 cells [1]; [6]) was 96.8%. The activity at 25 µg/mL (BHK-21 cells [1]; [7]) was 75%, the activity at 50 µg/mL (BHK-21 cells [1]; [8]) was 66.1% and the activity at 0.5 µg/mL (BHK-21 cells [1]; [9]) was 92.7%. The activity at 1 µg/mL (BHK-21 cells [1]; [10]) was 91.7%, the activity at 5 µg/mL (BHK-21 cells [1]; [11]) was 84.6% and the activity at 25 µg/mL (BHK-21 cells [1]; [12]) was 66%. The activity at 50 µg/mL (BHK-21 cells [1]; [13]) was 41.7%, the activity at 0.5 µg/mL (BHK-21 cells [1]; [14]) was 98.5% and the activity at 1 µg/mL (BHK-21 cells [1]; [15]) was 96.5%. It also gave an activity at 5 µg/mL (BHK-21 cells [1]; [16]) of 96.9%, an activity at 25 µg/mL (BHK-21 cells [1]; [17]) of 86.9% and an activity at 50 µg/mL (BHK-21 cells [1]; [18]) of 40%. The “growth inhibition of incubated human cutaneous fibroblasts” value (shortened to “growth inhibition”) [3] was “inhibited”, the cell numbers (BHK-21 cells [2]; 2nd day) was 8.2 × 10^5 cells/dish and the cell numbers (BHK-21 cells [2]; 4th day) was 12.6 × 10^5 cells/dish.

In the case of `CCCCC(=O)O[C@]1(C(=O)CO)[C@@H](C)C[C@H]2[C@@H]3CCC4=CC(=O)C=C[C@]4(C)[C@@]3(F)[C@@H](O)C[C@@]21C` [betamethasone-17-valerate], the “growth inhibition” value [3] is listed as “inhibited”.

In the case of `CCC(=O)OCC(=O)[C@@]1(OC(=O)CC)[C@@H](C)C[C@H]2[C@@H]3CCC4=CC(=O)C=C[C@]4(C)[C@@]3(F)[C@@H](O)C[C@@]21C` [betamethasonedipropionate], the “growth inhibition” value [3] is listed as “inhibited”.

For `CCC(=O)O[C@]1(C(=O)CCl)[C@@H](C)C[C@H]2[C@@H]3CCC4=CC(=O)C=C[C@]4(C)[C@@]3(F)[C@@H](O)C[C@@]21C` [clobetasol-17-propionate], the “denaturation of human fibroblastic nuclei and protoplasms” value ([3]; 25 μg/ml) is given as “caused human fibroblastic nuclei and protoplasms to denature” and the “growth inhibition” value [3] is given as “inhibited”.

For `CCCC(=O)O[C@]1(C(=O)CO)CC[C@H]2[C@@H]3CCC4=CC(=O)CC[C@]4(C)[C@H]3[C@@H](O)C[C@@]21C` [hydrocortisone-butylate], the “growth inhibition” value [3] is given as “inhibited”.

For `C[C@]12C=CC(=O)C=C1CC[C@@H]1[C@@H]2[C@@H](O)C[C@@]2(C)[C@H]1CC[C@]2(O)C(=O)CO` [Prednisolone, prednisolone], the cell numbers (BHK-21 cells [1]; 0.5 μg/ml, 2 days) was 1.20 × 10^5 cells/dish, the cell numbers (BHK-21 cells [1]; 0.5 μg/ml, 4 days) was 2.43 × 10^5 cells/dish and the cell numbers (BHK-21 cells [1]; 0.5 μg/ml, 6 days) was 2.51 × 10^5 cells/dish. For the same compound, the cell numbers (BHK-21 cells [1]; 1.0 μg/ml, 2 days) was 1.20 × 10^5 cells/dish, the cell numbers (BHK-21 cells [1]; 1.0 μg/ml, 4 days) was 2.45 × 10^5 cells/dish and the cell numbers (BHK-21 cells [1]; 1.0 μg/ml, 6 days) was 2.50 × 10^5 cells/dish. The cell numbers (BHK-21 cells [1]; 5.0 μg/ml, 2 days) was 1.09 × 10^5 cells/dish, the cell numbers (BHK-21 cells [1]; 5.0 μg/ml, 4 days) was 2.33 × 10^5 cells/dish and the cell numbers (BHK-21 cells [1]; 5.0 μg/ml, 6 days) was 2.48 × 10^5 cells/dish. The cell numbers (BHK-21 cells [1]; 25.0 μg/ml, 2 days) was 0.85 × 10^5 cells/dish, the cell numbers (BHK-21 cells [1]; 25.0 μg/ml, 4 days) was 1.49 × 10^5 cells/dish and the cell numbers (BHK-21 cells [1]; 25.0 μg/ml, 6 days) was 1.91 × 10^5 cells/dish. For the same compound, the cell numbers (BHK-21 cells [1]; 50.0 μg/ml, 2 days) was 0.73 × 10^5 cells/dish, the cell numbers (BHK-21 cells [1]; 50.0 μg/ml, 4 days) was 1.01 × 10^5 cells/dish and the cell numbers (BHK-21 cells [1]; 50.0 μg/ml, 6 days) was 0.98 × 10^5 cells/dish. For the same compound, the activity at 0.5 µg/mL (BHK-21 cells [1]; [4]) was 91.6%, the activity at 1 µg/mL (BHK-21 cells [1]; [5]) was 91.6% and the activity at 5 µg/mL (BHK-21 cells [1]; [6]) was 83.2%. For the same compound, the activity at 25 µg/mL (BHK-21 cells [1]; [7]) was 64.9%, the activity at 50 µg/mL (BHK-21 cells [1]; [8]) was 55.7% and the activity at 0.5 µg/mL (BHK-21 cells [1]; [9]) was 89.3%. It also gave an activity at 1 µg/mL (BHK-21 cells [1]; [10]) of 90.1%, an activity at 5 µg/mL (BHK-21 cells [1]; [11]) of 85.7% and an activity at 25 µg/mL (BHK-21 cells [1]; [12]) of 54.8%. The activity at 50 µg/mL (BHK-21 cells [1]; [13]) was 37.1%, the activity at 0.5 µg/mL (BHK-21 cells [1]; [14]) was 94.7% and the activity at 1 µg/mL (BHK-21 cells [1]; [15]) was 94.3%. It also gave an activity at 5 µg/mL (BHK-21 cells [1]; [16]) of 93.6%, an activity at 25 µg/mL (BHK-21 cells [1]; [17]) of 72.1% and an activity at 50 µg/mL (BHK-21 cells [1]; [18]) of 37%. The cell numbers (BHK-21 cells [2]; 2nd day) was 0.78 × 10^5 cells/dish and the cell numbers (BHK-21 cells [2]; 4th day) was 0.94 × 10^5 cells/dish.

In the case of `C[C@]12CCC(=O)C=C1CC[C@@H]1[C@@H]2[C@@H](O)C[C@@]2(C)[C@H]1CC[C@]2(O)C(=O)CO` [cortisol], the “growth of incubated mouse fibroblasts” value (mouse fibroblasts) is given as “inhibited growth”.
